Common to all, as to format: cell-based
Data set [1] is described as follows: PHH natural infection assay, cytotoxicity (Cell Counting Kit-8). Particulars: human, HBV-infected primary human hepatocytes, CCK8, end of treatment. The gist of the method: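 HBV-infected at 200 GE/cell with 4% PEG8000 for 24 h, then sandwich-cultured 72 h in 1% DMSO and 0.25 mg/mL matrix gel. Compound added twice at 72-h intervals; supernatant HBsAg and HBeAg read by AlphaLISA, HBV DNA by quantitative fluorescence PCR kit. Cytotoxicity by CCK-8.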
On the technique in general: Formazan colour is commonly taken as a measure of viable cells.

For another data set, the system named is HBeAg. The experiment in a line: PHH HBV natural infection assay, HBeAg (alphalisa). The gist of the method:
(§1)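 Primary human hepatocytes infected with HBV at 200 GE/cell plus 4% PEG8000 for 24 h, then sandwich-cultured 72 h. Compounds were added in two refreshes 72 h apart. HBsAg and HBeAg in supernatant measured by AlphaLISA.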
A general note: Alpha assays give light when donor and acceptor beads are brought close together.

The subject of another data set is HBsAg. The data set is described as follows: PHH HBV natural infection assay, HBsAg (alphalisa). The gist of the method:
as §1

Where [2] appears, read: Hepatitis B virus, Hepatocyte, 72 h, read-out: HbeAg IC50, HBV-infected primary human hepatocytes, supernatant, compound medium refreshed two times with 72-hour interval.
Where [3] appears, read: Hepatitis B virus, Hepatocyte, 72 h, read-out: HBsAg IC50, HBV-infected primary human hepatocytes, supernatant, compound medium refreshed two times with 72-hour interval.
[4] abbreviates: read-out: HbeAg IC50, HBV-infected primary human hepatocytes, supernatant, compound medium refreshed two times with 72-hour interval.
[5] abbreviates: read-out: HBsAg IC50, HBV-infected primary human hepatocytes, supernatant, compound medium refreshed two times with 72-hour interval.

Where two headings read alike, the source gives them in different places.

As a reminder, the CC50 is the concentration giving 50% cytotoxicity. As usually defined, the IC50 is the point on the concentration scale where inhibition reaches its midpoint. `O=C(NC1CC2(C1)CC(c1nc3cc(Cl)ccc3o1)C2)c1ccc(S(=O)(=O)CC2CN(C(=O)OCc3ccccc3)C2)o1` (stereo not drawn) [Example 26, benzyl 3-[[5-[[6-(5-chloro-1,3-benzoxazol-2-yl)spiro[3.3]heptan-2-yl]carbamoyl]-2-furyl]sulfonylmethyl]azetidine-1-carboxylate]: the CC50 at 144 h in data set [1] is greater than 100 µM. For the same compound, the IC50 in the data set on HBeAg (setting [2]) was determined as 0.329 µM; with HBsAg (setting [3]), 0.365 µM.
In turn, `NC(=O)c1ccc(C(=O)NC2CC3(C2)CC(c2nc4cc(Cl)ccc4o2)C3)o1` (stereo not drawn) [Example 11, N2-[6-(5-Chloro-1,3-benzoxazol-2-yl)spiro[3.3]heptan-2-yl]furan-2,5-dicarboxamide] showed a CC50 at 144 h in data set [1] greater than 10 µM. Further, the concentration for half-maximal inhibition (IC50) is 5.22 µM in the data set on HBeAg (setting [2]) and 5.88 µM with HBsAg (setting [3]).
In turn, `N=S(=O)(CC1COC1)c1ccc(C(=O)NC2CC3(C2)CC(c2nc4cc(Cl)ccc4o2)C3)o1` (stereo not drawn) [Example 56, N-[6-(5-chloro-1,3-benzoxazol-2-yl)spiro[3.3]heptan-2-yl]-5-(oxetan-3-ylmethylsulfonimidoyl)furan-2-carboxamide] yielded a CC50 at 144 h in data set [1] greater than 100 µM. Moreover, the IC50 in the data set with HBeAg (setting [2]) came to 2.9 µM; in the data set with HBsAg (setting [3]), 4.41 µM.
In data set [1], `O=C(NC1CC2(C1)CC(c1nc3cc(Cl)cnc3o1)C2)c1ccc(S(=O)(=O)C2CC2)o1` (single isomer, unassigned) [Example 49-a, N-[6-(6-chlorooxazolo[5,4-b]pyridin-2-yl)spiro[3.3]heptan-2-yl]-5-cyclopropylsulfonyl-furan-2-carboxamide] displayed a CC50 at 144 h of 81.1 µM. Besides, the half-maximal inhibitory concentration (IC50) was 4.25 µM in the data set on HBeAg (setting [4]) and 4.17 µM in the data set with HBsAg (setting [5]).
Consider `N=S(=O)(c1ccc(C(=O)NC2CC3(C2)CC(c2nc4cc(Cl)ccc4o2)C3)o1)N1CCOCC1` (stereo not drawn) [Example 67, N-[6-(5-chloro-1,3-benzoxazol-2-yl)spiro[3.3]heptan-2-yl]-5-(morpholinosulfonimidoyl)furan-2-carboxamide], for which, in data set [1], the 50% cytotoxic concentration (CC50) at 144 h was greater than 10 µM. The half-inhibitory concentration (IC50) with HBeAg (setting [2]) was 3.65 µM; in the data set on HBsAg (setting [3]) it was 6.24 µM.
As to `[H][C@]1(NC(=O)c2ccc([S@](C)(=N)=O)o2)C[C@]2(C1)C[C@]([H])(c1nc3cc(Cl)ccc3o1)C2` (stereo partly drawn) [Example 52-d, (Ra)—N-[6-(5-chloro-1,3-benzoxazol-2-yl)spiro[3.3]heptan-2-yl]-5-[(R)-methylsulfonimidoyl]furan-2-carboxamide], the cytotoxic concentration (CC50) at 144 h in data set [1] is greater than 100 µM. For the same compound, the values for the IC50 in the data set on HBeAg (setting [2]) and in the data set with HBsAg (setting [3]) were 0.876 µM and 0.966 µM, respectively.
For the compound `NS(=O)(=O)c1ccc(C(=O)NC2CC3(C2)CC(c2nc4cc(Cl)ccc4o2)C3)o1` (single isomer, unassigned) [Example 29-a, N-[6-(5-chloro-1,3-benzoxazol-2-yl)spiro[3.3]heptan-2-yl]-5-sulfamoyl-furan-2-carboxamide], in data set [1], the CC50 at 144 h was greater than 100 µM. Besides, the results for the IC50 with HBeAg (setting [4]) and in the data set on HBsAg (setting [5]) were 2.28 µM and 5.12 µM, respectively.
`COc1ccc(C(=O)NC2CC3(C2)CC(c2nc4cc(Cl)ccc4o2)C3)o1` (stereo not drawn) [Example 8, N-[6-(5-chloro-1,3-benzoxazol-2-yl)spiro[3.3]heptan-2-yl]-5-methoxy-furan-2-carboxamide] returned a CC50 at 144 h in data set [1] of 94.2 µM. Besides, the results for the IC50 in the data set on HBeAg (setting [2]) and in the data set with HBsAg (setting [3]) were 5.84 µM and 7.96 µM, respectively.
Turning to `O=C(NC1CC2(C1)CC(c1nc3cc(Cl)ccc3o1)C2)c1ccc(Br)o1` (stereo not drawn) [Example 3, 5-bromo-N-[6-(5-chloro-1,3-benzoxazol-2-yl)spiro[3.3]heptan-2-yl]furan-2-carboxamide], in data set [1], the CC50 at 144 h is 96.2 µM. The results for the half-maximal inhibitory concentration (IC50) with HBeAg (setting [2]) and in the data set with HBsAg (setting [3]) were 7.64 µM and 9.79 µM, respectively.
`COCCOCCOCC(=O)NS(=O)(=O)c1ccc(C(=O)N[C@H]2CC3(C2)C[C@H](c2nc4cc(Cl)ccc4o2)C3)o1` (single isomer, unassigned) [Example 79, (Sa)—N-[6-(5-chloro-1,3-benzoxazol-2-yl)spiro[3.3]heptan-2-yl]-5-[[2-[2-(2-methoxyethoxy)ethoxy]acetyl]sulfamoyl]furan-2-carboxamide, or (Ra)—N-[6-(5-chloro-1,3-benzoxazol-2-yl)spiro[3.3]heptan-2-yl]-5-[[2-[2-(2-methoxyethoxy)ethoxy]acetyl]sulfamoyl]furan-2-carboxamide] came in with a cytotoxic concentration (CC50) at 144 h in data set [1] greater than 10 µM. The 50% inhibitory concentration (IC50) was 4.65 µM with HBeAg (setting [2]) and 6.13 µM in the data set on HBsAg (setting [3]).
The corresponding values for `O=C(N[C@H]1CC2(C1)C[C@H](c1nc3cc(Cl)ccc3o1)C2)c1ccc(S(=O)(=O)NC(=O)C2CCOC2)o1` (stereo partly drawn) [Example 77, (Sa)—N-[6-(5-chloro-1,3-benzoxazol-2-yl)spiro[3.3]heptan-2-yl]-5-(tetrahydrofuran-3-carbonylsulfamoyl)furan-2-carboxamide, or (Ra)—N-[6-(5-chloro-1,3-benzoxazol-2-yl)spiro[3.3]heptan-2-yl]-5-(tetrahydrofuran-3-carbonylsulfamoyl)furan-2-carboxamide] are greater than 100 µM, 0.563 µM and 1.16 µM.
Take `O=C(NC1CC2(C1)CC(c1nc3cc(Cl)ccc3o1)C2)c1ccc(Cl)o1` (stereo not drawn) [Example 6, 5-chloro-N-[6-(5-chloro-1,3-benzoxazol-2-yl)spiro[3.3]heptan-2-yl]furan-2-carboxamide]: in data set [1], the 50% cytotoxic concentration (CC50) at 144 h is greater than 100 µM. The half-inhibitory concentration (IC50) in the data set with HBeAg (setting [2]) came out at 2.08 µM; with HBsAg (setting [3]), 2.77 µM.
Turning to `CS(=N)(=O)c1ccc(C(=O)NC2CC3(C2)CC(c2nc4cc(Cl)cnc4o2)C3)o1` (stereo not drawn) [Example 63, N-[6-(6-chlorooxazolo[5,4-b]pyridin-2-yl)spiro[3.3]heptan-2-yl]-5-(methylsulfonimidoyl)furan-2-carboxamide], the CC50 at 144 h in data set [1] was greater than 100 µM. Also, the concentration for half-maximal inhibition (IC50) in the data set on HBeAg (setting [2]) came out at 4.94 µM; with HBsAg (setting [3]), 6.69 µM.
Compound `CS(=O)(=O)c1ccc(C(=O)NC2CC3(C2)CC(c2nc4cc(Cl)cnc4o2)C3)o1` (stereo not drawn) [Example 48, N-[6-(6-chlorooxazolo[5,4-b]pyridin-2-yl)spiro[3.3]heptan-2-yl]-5-methylsulfonyl-furan-2-carboxamide] displayed a cytotoxic concentration (CC50) at 144 h in data set [1] greater than 100 µM. The IC50 was found to be 1.82 µM with HBeAg (setting [2]) and 2.4 µM with HBsAg (setting [3]).
The corresponding values for `O=C(NC1CC2(C1)CC(c1nc3cc(Cl)ccc3o1)C2)c1cc(C(F)(F)F)n[nH]1` (stereo not drawn) [Example 12, N-[6-(5-chloro-1,3-benzoxazol-2-yl)spiro[3.3]heptan-2-yl]-3-(trifluoromethyl)-1H-pyrazole-5-carboxamide] are 30.2 µM, 6.86 µM and 3.96 µM.
`CC(=O)NS(=O)(=O)c1ccc(C(=O)NC2CC3(C2)CC(c2nc4cc(Cl)ccc4o2)C3)o1` (stereo not drawn) [Example 80, 5-(acetylsulfamoyl)-N-[6-(5-chloro-1,3-benzoxazol-2-yl)spiro[3.3]heptan-2-yl]furan-2-carboxamide] showed a cytotoxic concentration (CC50) at 144 h in data set [1] greater than 100 µM. For the same compound, the values for the 50% inhibitory concentration (IC50) in the data set on HBeAg (setting [2]) and with HBsAg (setting [3]) were 1.8 µM and 2.77 µM, respectively.
The compound `NS(=O)(=O)Cc1ccc(C(=O)NC2CC3(C2)CC(c2nc4cc(Cl)ccc4o2)C3)o1` (stereo not drawn) [Example 33, N-[6-(5-chloro-1,3-benzoxazol-2-yl)spiro[3.3]heptan-2-yl]-5-(sulfamoylmethyl)furan-2-carboxamide] yielded a cytotoxic concentration (CC50) at 144 h in data set [1] greater than 100 µM. The values for the concentration for half-maximal inhibition (IC50) in the data set on HBeAg (setting [2]) and in the data set with HBsAg (setting [3]) were 1.39 µM and 1.41 µM, respectively.
